From US9714239B2, “N-phenyl-lactam derivatives capable of stimulating neurogenesis and their use in the treatment of neurological disorders” (Hoffmann-La Roche Inc., priority 2014, dated 2017)

Each compound was assayed on human embryonic stem cell derived neural stem cells (NSCs) (assay: Neurogenesis assay: neural stem cell proliferation assay). Conditions: 96 h, compound concentration at which 150% activity of control (100%) is reached, increase in cells based on ATP levels (CellTiterGlo), 4 days incubation, dose response 8 μM to 8 nM.

Going from `COc1cccc(C2CCN(c3ccc(-c4ccncc4)cc3)C2=O)c1` (centres unmarked) [Example 71, 3-(3-Methoxyphenyl)-1-(4-pyridin-4-ylphenyl)pyrrolidin-2-one] to `O=C1N(Cc2cccc(F)c2)CCN1c1ccc(-c2cnco2)cc1` [Example 72, 1-[(3-Fluorophenyl)methyl]-3-[4-(1,3-oxazol-5-yl)phenyl]imidazolidin-2-one], the EC (150% of control) rises from 0.0155 µM to 1.07 µM (69-fold).

First: O=C1N(Cc2ccccc2F)CCN1c1ccc(-c2cnco2)cc1 [Example 73, 1-[(2-Fluorophenyl)methyl]-3-[4-(1,3-oxazol-5-yl)phenyl]imidazolidin-2-one]
Second: COc1cc(N2CCN(Cc3ccccc3F)C2=O)ccc1-c1cnco1 [Example 74, 1-[(2-Fluorophenyl)methyl]-3-[3-methoxy-4-(1,3-oxazol-5-yl)phenyl]imidazolidin-2-one]
The EC (150% of control) of the first is 1.8-fold lower: 1.49 µM for the first, 2.7 µM for the second.

With `COc1cc(N2CCN(Cc3cccc(F)c3)C2=O)ccc1-c1cnco1` [Example 75, 1-[(3-Fluorophenyl)methyl]-3-[3-methoxy-4-(1,3-oxazol-5-yl)phenyl]imidazolidin-2-one] the EC (150% of control) was 0.597 µM.
